Laboratory results taken from ChEMBL document CHEMBL1938362, “Synthesis and properties of molecular probes for the rescue site on mutant cystic fibrosis transmembrane conductance regulator” (J Med Chem, 2011).

How the values were obtained:
[1] = tested on: BHK; experiment: Modulation of CFTR F508 deletion mutant expressed in BHK cells assessed as increase in forskolin-stimulated iodine influx at 10 uM after 5 mins […] (reference value: 1.4 +/- 0.4 nM/s); format: cell-based
[2] = tested on: Cystic fibrosis transmembrane conductance regulator (Homo sapiens), P13569 [G551D]; experiment: Modulation of C-terminal His10-tagged CFTR G551D mutant in liposomes of egg phosphatidylcholine assessed as increase in iodine influx at 10 uM after 5 mins […] in presence of protein kinase A and valinomycin relative to control
Sequence of Cystic fibrosis transmembrane conductance regulator (Homo sapiens), P13569 [G551D] (P13569 whole entry G551D): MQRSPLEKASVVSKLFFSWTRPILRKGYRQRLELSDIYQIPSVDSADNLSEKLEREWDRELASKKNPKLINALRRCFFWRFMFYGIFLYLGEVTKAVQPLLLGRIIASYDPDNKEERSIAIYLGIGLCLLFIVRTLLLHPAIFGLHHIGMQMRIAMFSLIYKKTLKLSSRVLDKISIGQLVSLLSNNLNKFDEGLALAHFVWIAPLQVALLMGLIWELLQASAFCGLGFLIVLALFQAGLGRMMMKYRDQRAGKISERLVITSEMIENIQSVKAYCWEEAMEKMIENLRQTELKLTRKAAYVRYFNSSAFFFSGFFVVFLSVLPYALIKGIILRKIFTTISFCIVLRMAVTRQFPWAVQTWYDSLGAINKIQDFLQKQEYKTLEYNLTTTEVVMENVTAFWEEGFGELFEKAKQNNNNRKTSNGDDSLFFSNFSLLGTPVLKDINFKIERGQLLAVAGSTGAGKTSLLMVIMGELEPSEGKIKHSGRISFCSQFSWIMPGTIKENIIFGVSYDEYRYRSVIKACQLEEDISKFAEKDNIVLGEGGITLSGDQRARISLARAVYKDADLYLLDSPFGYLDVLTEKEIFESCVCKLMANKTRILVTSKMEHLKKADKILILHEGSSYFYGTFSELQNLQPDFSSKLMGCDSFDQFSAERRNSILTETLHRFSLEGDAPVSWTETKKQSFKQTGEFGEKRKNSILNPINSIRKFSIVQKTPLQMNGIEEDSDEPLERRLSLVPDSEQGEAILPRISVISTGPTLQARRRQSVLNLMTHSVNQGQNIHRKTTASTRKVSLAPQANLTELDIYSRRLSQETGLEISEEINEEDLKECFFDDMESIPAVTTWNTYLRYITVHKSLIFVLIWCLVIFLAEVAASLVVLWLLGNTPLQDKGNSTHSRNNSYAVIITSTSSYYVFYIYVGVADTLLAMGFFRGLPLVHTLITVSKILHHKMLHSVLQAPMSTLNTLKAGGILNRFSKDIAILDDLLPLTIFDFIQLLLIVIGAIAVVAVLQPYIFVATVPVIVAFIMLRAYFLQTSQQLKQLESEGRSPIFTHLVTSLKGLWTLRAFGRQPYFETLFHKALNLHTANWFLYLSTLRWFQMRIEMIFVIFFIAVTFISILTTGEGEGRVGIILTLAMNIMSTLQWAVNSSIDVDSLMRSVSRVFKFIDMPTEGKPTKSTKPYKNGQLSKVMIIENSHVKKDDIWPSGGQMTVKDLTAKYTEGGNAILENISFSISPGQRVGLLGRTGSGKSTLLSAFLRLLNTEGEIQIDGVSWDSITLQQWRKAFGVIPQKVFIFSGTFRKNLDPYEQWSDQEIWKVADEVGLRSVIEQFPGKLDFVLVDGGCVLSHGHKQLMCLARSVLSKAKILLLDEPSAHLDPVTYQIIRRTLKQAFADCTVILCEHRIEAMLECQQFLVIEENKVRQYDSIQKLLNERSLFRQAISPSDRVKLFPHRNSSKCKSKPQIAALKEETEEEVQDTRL

Activity [2] [nM/s] | SMILES | Activity [1] [nM/s]
 | Cc1ccc(O)c(-c2cc(-c3ccc(N)cc3)[nH]n2)c1 | 5.1
 | Cc1ccc(O)c(-c2cc(-c3ccc(N=[N+]=[N-])cc3)[nH]n2)c1 | 5.1
 | Cc1ccc(O)c(-c2cc(-c3ccc(I)cc3)[nH]n2)c1 | 5.1
 | Cc1ccc(O)c(-c2cc(-c3ccc([N+](=O)[O-])cc3)[nH]n2)c1 | 5.1
11.2 | Cc1ccc(O)c(-c2cc(-c3ccc(C#CCNS(=O)(=O)c4cccc5c(N(C)C)cccc45)cc3)[nH]n2)c1 | 1.7
16.9 | Cc1ccc(O)c(-c2cc(-c3ccccc3)[nH]n2)c1 | 9.9
